1 compound from ChEMBL document CHEMBL5346927, “Discovery of a novel 1H-pyrazole- [3,4-b] pyridine-based lysine demethylase 5B inhibitor with potential anti-prostate cancer activity that perturbs the phosphoinositide 3-kinase/AKT pathway” (Eur J Med Chem, 2023) can be followed below.

The structures appear in SMILES notation.

For the test, the system named is PC-3. As to the kind of experiment: Inhibition of cell migration in human PC-3 cells at 5 to 10 uM by wound scratch assay. It counts as functional, cell-based. As to conditions: dose 5-10 µM, time <= 24.0 hrs, TDE = time-dependent effect.

`CN1CCN(CCNC(=O)c2cc(-c3ccc4ccccc4c3)nc3c2cnn3-c2ccccc2)CC1`: the inhibition entry was “Tde”.
